# Laboratory results taken from patent US20120201824A1, “Compositions and Methods for Inhibiting an Oncogenic Protein to Enhance Immunogenicity” (priority 2008, published 2012).
# Key:
# [1] = test system: CD274 protein; assay: Flow cytometry for cell-surface CD274 protein in ALK+ TCL cells; format: cell-based, human; details: SUDHL-1 cells; rapamycin 300 nM, wortmannin 20 nM, U0126 15 μM, Jak3 inhibitor 1 μM
# Experimental: All antibodies were purchased from BD Pharmingen. The stained cells were applied to the flow cytometer (FACSCalibur; Becton Dickinson), and 20,000 events were analyzed. Results of the cell staining are presented as histograms with cell number on the vertical axis and relative fluorescence on the logarithmic horizontal axis. […] Inhibitors of: […] Marzec et al., 2007, Oncogene 26: 813-821; Marzec et al., 2007, Oncogene 26: 5606-5614; Marzec et al., 2008, Cancer Res 68: 1083-1091). A mixture of four STAT3 or STAT5b specific siRNA or non-targeting siRNA (all purchased from Dharmacon) was introduced into cells at 100 nM by lipofection with the hew generation Lipofectamine (DMRIE-C; Invitrogen). The procedure was repeated after 24 hours and the cells were cultured for an additional 24 hours. The cells were harvested at one time point 48 hours after first transfection. Extend of the protein knock-down was examined by Flow Cytometry and RT-PCR.
# [2] = test system: CD274 mRNA; assay: RT-PCR for CD274 mRNA in ALK+ TCL cells; format: cell-based, human; details: SUDHL-1 cells; rapamycin 300 nM, wortmannin 20 nM, U0126 15 μM, Jak3 inhibitor 1 μM
# Experimental: Total RNA was isolated using RNeasy Mini kit (Qiagen), treated with DNase I (Invitrogen), and reverse-transcribed by using Thermoscript RT-PCR system (Invitrogen) with random hexamers as cDNA synthesis primers. The following primer pairs were used for the cDNA amplification: β-actin, 5'[…] ID NO: 1) and 5'[…] ID NO: 2); CD274, 5'[…] ID NO: 3) and 5'[…] ID NO: 4). PCR was performed by using Platium […] polymerase (Invitrogen) for 21 cycles comprised of the denaturation step for 20 seconds at 94° C., annealing for 30 seconds at 58° C. and elongation for 30 seconds at 72° C. The PCR products were visualized by ethium bromide staining in 1.5% agarose gel. […] Inhibitors of: […] Marzec et al., 2007, Oncogene 26: 813-821; Marzec et al., 2007, Oncogene 26: 5606-5614; Marzec et al., 2008, Cancer Res 68: 1083-1091). A mixture of four STAT3 or STAT5b specific siRNA or non-targeting siRNA (all purchased from Dharmacon) was introduced into cells at 100 nM by lipofection with the hew generation Lipofectamine (DMRIE-C; Invitrogen). The procedure was repeated after 24 hours and the cells were cultured for an additional 24 hours. The cells were harvested at one time point 48 hours after first transfection. Extend of the protein knock-down was examined by Flow Cytometry and RT-PCR.
smiles,measurement,setting,value
N#CC(=C(/N)Sc1ccccc1N)/C(C#N)=C(\N)Sc1ccccc1N [U0126],CD274 expression on the protein level (flow cytometry),[1],no detectable impact
same,CD274 expression on the mRNA level (RT-PCR),[2],no detectable impact
